Measurements taken from patent US12180187B2, “1-phenyl-5-azinylpyrazolyl-3-oxyalkyl acids and their use for controlling unwanted plant growth” (BAYER AKTIENGESELLSCHAFT, priority 2019, dated 2024).

Legend:
PHBPU [1] = test: Post-emergence action at 320 g/ha against PHBPU; type: in vivo; conditions: visual rating about 3 weeks after treatment vs untreated controls
Description: (§1) Accordingly, the compounds of the invention have good herbicidal action against a broad spectrum of weed grasses and broad-leaved weeds and are therefore suitable for controlling unwanted vegetation by the post-emergence method. • b) Seeds of monocotyledonous and dicotyledonous weeds and crop plants are placed in sandy loam in plastic or organic planting pots, covered with soil and cultivated in a greenhouse under controlled growth conditions. 2 to 3 weeks after sowing, the test plants are treated at the one-leaf stage. The compounds of the invention, formulated in the form of wettable powders (WP) or as emulsion concentrates (EC), are then sprayed onto the green parts of the plants as aqueous suspension or emulsion with addition of 0.5% additive at a water application rate of 600 l/ha (converted). After the test plants have been kept in the greenhouse under optimum growth conditions for about 3 weeks, the activity of the preparations is rated visually in comparison to untreated controls. For example, 100% activity=the plants have died, 0% activity=like control plants. Tables 39 to 49 below show the effects of selected compounds of the general formula (I) according to Tables 1 and 2 on various harmful plants and at an application rate corresponding to 320 g/ha, which were obtained by the experimental procedure mentioned above.

AMARE = test: Pre-emergence action at 320 g/ha against AMARE; type: in vivo, Amaranthus retroflexus; conditions: visual scoring after about 3 weeks vs untreated controls
Outline: (§2)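 Effect rated visually (% vs untreated control) about 3 weeks after pre-emergence spraying of WP/EC formulation onto soil; spray carried 0.5% additive at 600 l/ha water.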

ALOMY [2] = test: Post-emergence action against ALOMY, 320 g/ha; type: in vivo, Alopecurus myosuroides; conditions: dosage 320 g/ha, visual rating about 3 weeks after treatment vs untreated controls (100% = plants died)
Outline: (§3)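 Greenhouse pot plants in sandy loam received a foliar spray of WP- or EC-formulated compound at the one-leaf stage. Percent activity against untreated controls was assessed visually around three weeks later.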

ECHCG = test: Post-emergence action at 320 g/ha against ECHCG; type: in vivo, Echinochloa crus-galli; conditions: dosage 320 g/ha, visual rating about 3 weeks after treatment vs untreated controls (100% = plants died)
Outline: as §3

PHBPU [3] = test: Pre-emergence action at 320 g/ha against PHBPU; type: in vivo; conditions: visual scoring after about 3 weeks vs untreated controls
Outline: as §2

VERPE = test: Pre-emergence action at 320 g/ha against VERPE; type: in vivo, Veronica persica; conditions: visual scoring after about 3 weeks vs untreated controls
Outline: as §2

ALOMY [4] = test: Pre-emergence action at 320 g/ha against ALOMY; type: in vivo, Alopecurus myosuroides; conditions: scored visually after about 3 weeks vs untreated controls (100% = plants have died)
Outline: as §2

DIGSA [5] = test: Pre-emergence action at 320 g/ha against DIGSA; type: in vivo, Digitaria sanguinalis; conditions: visual scoring after about 3 weeks vs untreated controls
Outline: as §2

SETVI [6] = test: Post-emergence action at 320 g/ha against SETVI; type: in vivo, Setaria viridis; conditions: visual rating about 3 weeks after treatment vs untreated controls
Outline: as §3

ECHGC = test: Pre-emergence action at 320 g/ha against ECHGC; type: in vivo, Echinochloa crus-galli; conditions: visual scoring after about 3 weeks vs untreated controls
Outline: as §2

MATIN = test: Pre-emergence action at 320 g/ha against MATIN; type: in vivo, Tripleurospermum inodorum (Matricaria inodora); conditions: visual scoring after about 3 weeks vs untreated controls
Outline: as §2

POLCO [7] = test: Post-emergence action at 320 g/ha against POLCO; type: in vivo, Fallopia convolvulus (Polygonum convolvulus); conditions: visual rating about 3 weeks after treatment vs untreated controls
Outline: as §3

LOLRI = test: Pre-emergence action at 320 g/ha against LOLRI; type: in vivo, Lolium rigidum; conditions: visual scoring after about 3 weeks vs untreated controls
Outline: as §2

AVEFA [8] = test: Post-emergence action at 320 g/ha against AVEFA; type: in vivo; conditions: visual rating about 3 weeks after treatment vs untreated controls
Outline: as §3

VIOTR [9] = test: Post-emergence action at 320 g/ha against VIOTR; type: in vivo, Viola tricolor; conditions: visual rating about 3 weeks after treatment vs untreated controls
Outline: as §3

ABUTH = test: Post-emergence action at 320 g/ha against ABUTH; type: in vivo, Abutilon theophrasti; conditions: visual rating about 3 weeks after treatment vs untreated controls
Description: as §1

HORMU [10] = test: Pre-emergence action at 320 g/ha against HORMU; type: in vivo, Hordeum murinum; conditions: greenhouse, scored visually after about 3 weeks vs untreated controls, 100% = plants have died, 0% = like control plants
Description: (§4) b) Seeds of monocotyledonous and dicotyledonous weed plants and crop plants are placed in plastic or organic planting pots and covered with soil. The compounds of the invention, formulated in the form of wettable powders (WP) or as emulsion concentrates (EC), are then applied onto the surface of the covering soil as aqueous suspension or emulsion with addition of 0.5% additive at a water application rate of 600 l/ha (converted). After the treatment, the pots are placed in a greenhouse and kept under good growth conditions for the trial plants. After about 3 weeks, the effect of the preparations is scored visually in comparison with untreated controls as percentages. For example, 100% activity=the plants have died, 0% activity=like control plants. Tables 13 to 26 below show the effects of selected compounds of the general formula (I) on various harmful plants and at an application rate corresponding to 320 g/ha, which were obtained by the experimental procedure mentioned above.

AVEFA [11] = test: Pre-emergence action at 320 g/ha against AVEFA; type: in vivo; conditions: visual scoring after about 3 weeks vs untreated controls
Outline: as §2

STEME = test: Pre-emergence action at 320 g/ha against STEME; type: in vivo, Stellaria media; conditions: greenhouse, scored visually after about 3 weeks vs untreated controls, 100% = plants have died, 0% = like control plants
Description: as §4

POLCO [12] = test: Pre-emergence action at 320 g/ha against POLCO; type: in vivo, Fallopia convolvulus (Polygonum convolvulus); conditions: visual scoring after about 3 weeks vs untreated controls
Outline: as §2

VIOTR [13] = test: Pre-emergence action at 320 g/ha against VIOTR; type: in vivo, Viola tricolor; conditions: dosage 320 g/ha
Outline: as §2

SETVI [14] = test: Pre-emergence action at 320 g/ha against SETVI; type: in vivo, Setaria viridis; conditions: visual scoring after about 3 weeks vs untreated controls
Outline: as §2

HORMU [15] = test: Post-emergence action at 320 g/ha against HORMU; type: in vivo, Hordeum murinum; conditions: visual rating about 3 weeks after treatment vs untreated controls
Description: as §1

DIGSA [16] = test: Post-emergence action at 320 g/ha against DIGSA; type: in vivo, Digitaria sanguinalis; conditions: dosage 320 g/ha, visual rating about 3 weeks after treatment vs untreated controls (100% = plants died)
Outline: as §3

CC(C)OC(=O)COc1nn(-c2ccccc2F)c(-c2ccc(F)nc2)c1Br [VII-005]
Post-emergence action against PHBPU in % (PHBPU [1]): 90% | Pre-emergence action against AMARE in % (AMARE): 100% | Post-emergence action against ALOMY (ALOMY [2]): 100% | Post-emergence action at 320 g/ha against ECHCG in % (ECHCG): 90% | Pre-emergence action against PHBPU in % (PHBPU [3]): 80% | Pre-emergence action against VERPE in % (VERPE): 100% | Pre-emergence action at 320 g/ha against ALOMY in % (ALOMY [4]): 100% | Pre-emergence action against DIGSA in % (DIGSA [5]): 100% | Post-emergence action against SETVI in % (SETVI [6]): 80% | Pre-emergence action against ECHGC in % (ECHGC): 100% | Pre-emergence action against MATIN in % (MATIN): 100% | Post-emergence action against POLCO in % (POLCO [7]): 80% | Pre-emergence action against LOLRI in % (LOLRI): 100% | Post-emergence action against AVEFA in % (AVEFA [8]): 100% | Post-emergence action against VIOTR in % (VIOTR [9]): 100% | Post-emergence action against ABUTH in % (ABUTH): 80% | Pre-emergence action at 320 g/ha against HORMU in % (HORMU [10]): 100% | Pre-emergence action against AVEFA in % (AVEFA [11]): 90% | Pre-emergence action at 320 g/ha against STEME in % (STEME): 90% | Pre-emergence action against POLCO in % (POLCO [12]): 100% | Pre-emergence action against VIOTR in % (VIOTR [13]): 100% | Pre-emergence action against SETVI in % (SETVI [14]): 100% | Post-emergence action against HORMU in % (HORMU [15]): 90% | Post-emergence action at 320 g/ha against DIGSA in % (DIGSA [16]): 90%
